Assay results published in patent US8192962B2, “Processes for detecting toxic substances” (Daikin Industries, Ltd., priority 2001, dated 2012).

Tested on: Stress protein genes
Test: DNA chip mRNA expression in yeast, stress protein genes (Table 6)
Assay type: cell-based, Saccharomyces cerevisiae S288C
How it was run: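 S. cerevisiae S288C grown at 25° C. in YPD to log phase, then exposed 2 h to a toxicant at a growth-inhibiting, non-lethal concentration; untreated cells as control. Poly(A) mRNA reverse-transcribed with Cy3-dUTP or Cy5-dUTP, hybridized >12 h at 65° C. to whole-genome yeast DNA chip; value = fluorescence ratio treated/untreated.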

## Oc1cc(Cl)c(Cl)cc1Cl [(6), 2,4,5-trichlorophenol]
Yeast gene YAL005C
  The level of expressed mRNA in the presence of chemical substance/The level of expressed mRNA in the absence of chemical substance: 1.6
Yeast gene YAL015C
  The level of expressed mRNA in the presence of chemical substance/The level of expressed mRNA in the absence of chemical substance: 0.7
Yeast gene YBL075C
  The level of expressed mRNA in the presence of chemical substance/The level of expressed mRNA in the absence of chemical substance: 0.8
Yeast gene YBL093C
  The level of expressed mRNA in the presence of chemical substance/The level of expressed mRNA in the absence of chemical substance: 0.8
Yeast gene YBR044C
  The level of expressed mRNA in the presence of chemical substance/The level of expressed mRNA in the absence of chemical substance: 1.0
Yeast gene YBR054W
  The level of expressed mRNA in the presence of chemical substance/The level of expressed mRNA in the absence of chemical substance: 1.1
Yeast gene YBR067C
  The level of expressed mRNA in the presence of chemical substance/The level of expressed mRNA in the absence of chemical substance: 1.1
Yeast gene YBR072W
  The level of expressed mRNA in the presence of chemical substance/The level of expressed mRNA in the absence of chemical substance: 32.2
Yeast gene YBR126C
  The level of expressed mRNA in the presence of chemical substance/The level of expressed mRNA in the absence of chemical substance: 2.9
Yeast gene YBR169C
  The level of expressed mRNA in the presence of chemical substance/The level of expressed mRNA in the absence of chemical substance: 4.9
Yeast gene YCL035C
  The level of expressed mRNA in the presence of chemical substance/The level of expressed mRNA in the absence of chemical substance: 5.1
Yeast gene YCR021C
  The level of expressed mRNA in the presence of chemical substance/The level of expressed mRNA in the absence of chemical substance: 2.2
Yeast gene YCR060W
  The level of expressed mRNA in the presence of chemical substance/The level of expressed mRNA in the absence of chemical substance: 3.3
Yeast gene YCR083W
  The level of expressed mRNA in the presence of chemical substance/The level of expressed mRNA in the absence of chemical substance: 2.4
Yeast gene YDL022W
  The level of expressed mRNA in the presence of chemical substance/The level of expressed mRNA in the absence of chemical substance: 2.1
Yeast gene YDL025C
  The level of expressed mRNA in the presence of chemical substance/The level of expressed mRNA in the absence of chemical substance: 0.6
Yeast gene YDR033W
  The level of expressed mRNA in the presence of chemical substance/The level of expressed mRNA in the absence of chemical substance: 6.7
Yeast gene YDR077W
  The level of expressed mRNA in the presence of chemical substance/The level of expressed mRNA in the absence of chemical substance: 1.0
Yeast gene YDR098C
  The level of expressed mRNA in the presence of chemical substance/The level of expressed mRNA in the absence of chemical substance: 1.1
Yeast gene YDR155C
  The level of expressed mRNA in the presence of chemical substance/The level of expressed mRNA in the absence of chemical substance: 1.5
Yeast gene YDR258C
  The level of expressed mRNA in the presence of chemical substance/The level of expressed mRNA in the absence of chemical substance: 2.4
Yeast gene YDR293C
  The level of expressed mRNA in the presence of chemical substance/The level of expressed mRNA in the absence of chemical substance: 0.9
Yeast gene YDR436W
  The level of expressed mRNA in the presence of chemical substance/The level of expressed mRNA in the absence of chemical substance: 1.1
Yeast gene YDR513W
  The level of expressed mRNA in the presence of chemical substance/The level of expressed mRNA in the absence of chemical substance: 2.1
Yeast gene YDR519W
  The level of expressed mRNA in the presence of chemical substance/The level of expressed mRNA in the absence of chemical substance: 1.3
Yeast gene YEL030W
  The level of expressed mRNA in the presence of chemical substance/The level of expressed mRNA in the absence of chemical substance: 0.6
Yeast gene YEL039C
  The level of expressed mRNA in the presence of chemical substance/The level of expressed mRNA in the absence of chemical substance: 1.5
Yeast gene YER042W
  The level of expressed mRNA in the presence of chemical substance/The level of expressed mRNA in the absence of chemical substance: 1.6
Yeast gene YER057C
  The level of expressed mRNA in the presence of chemical substance/The level of expressed mRNA in the absence of chemical substance: 1.6
Yeast gene YER103W
  The level of expressed mRNA in the presence of chemical substance/The level of expressed mRNA in the absence of chemical substance: 1.7
Yeast gene YER125W
  The level of expressed mRNA in the presence of chemical substance/The level of expressed mRNA in the absence of chemical substance: 0.7
Yeast gene YFL014W
  The level of expressed mRNA in the presence of chemical substance/The level of expressed mRNA in the absence of chemical substance: 9.3
Yeast gene YFL016C
  The level of expressed mRNA in the presence of chemical substance/The level of expressed mRNA in the absence of chemical substance: 1.3
Yeast gene YFL020C
  The level of expressed mRNA in the presence of chemical substance/The level of expressed mRNA in the absence of chemical substance: 2.0
Yeast gene YFR052W
  The level of expressed mRNA in the presence of chemical substance/The level of expressed mRNA in the absence of chemical substance: 3.2
Yeast gene YGL073W
  The level of expressed mRNA in the presence of chemical substance/The level of expressed mRNA in the absence of chemical substance: 1.9
Yeast gene YGL115W
  The level of expressed mRNA in the presence of chemical substance/The level of expressed mRNA in the absence of chemical substance: 1.2
Yeast gene YGL181W
  The level of expressed mRNA in the presence of chemical substance/The level of expressed mRNA in the absence of chemical substance: 1.9
Yeast gene YGR088W
  The level of expressed mRNA in the presence of chemical substance/The level of expressed mRNA in the absence of chemical substance: 1.3
Yeast gene YHL028W
  The level of expressed mRNA in the presence of chemical substance/The level of expressed mRNA in the absence of chemical substance: 1.8
Yeast gene YHL046C
  The level of expressed mRNA in the presence of chemical substance/The level of expressed mRNA in the absence of chemical substance: 0.8
Yeast gene YHR030C
  The level of expressed mRNA in the presence of chemical substance/The level of expressed mRNA in the absence of chemical substance: 0.9
Yeast gene YHR057C
  The level of expressed mRNA in the presence of chemical substance/The level of expressed mRNA in the absence of chemical substance: 1.3
Yeast gene YHR104W
  The level of expressed mRNA in the presence of chemical substance/The level of expressed mRNA in the absence of chemical substance: 1.2
Yeast gene YIL011W
  The level of expressed mRNA in the presence of chemical substance/The level of expressed mRNA in the absence of chemical substance: 0.7
Yeast gene YIL033C
  The level of expressed mRNA in the presence of chemical substance/The level of expressed mRNA in the absence of chemical substance: 2.0
Yeast gene YIR037W
  The level of expressed mRNA in the presence of chemical substance/The level of expressed mRNA in the absence of chemical substance: 2.7
Yeast gene YIR038C
  The level of expressed mRNA in the presence of chemical substance/The level of expressed mRNA in the absence of chemical substance: 2.5
Yeast gene YJL128C
  The level of expressed mRNA in the presence of chemical substance/The level of expressed mRNA in the absence of chemical substance: 1.3
Yeast gene YJL158C
  The level of expressed mRNA in the presence of chemical substance/The level of expressed mRNA in the absence of chemical substance: 0.5
Yeast gene YJL159W
  The level of expressed mRNA in the presence of chemical substance/The level of expressed mRNA in the absence of chemical substance: 1.8
Yeast gene YJL165C
  The level of expressed mRNA in the presence of chemical substance/The level of expressed mRNA in the absence of chemical substance: 0.5
Yeast gene YJR045C
  The level of expressed mRNA in the presence of chemical substance/The level of expressed mRNA in the absence of chemical substance: 1.2
Yeast gene YJR090C
  The level of expressed mRNA in the presence of chemical substance/The level of expressed mRNA in the absence of chemical substance: 1.2
Yeast gene YKL161C
  The level of expressed mRNA in the presence of chemical substance/The level of expressed mRNA in the absence of chemical substance: 2.0
Yeast gene YKL163W
  The level of expressed mRNA in the presence of chemical substance/The level of expressed mRNA in the absence of chemical substance: 1.1
Yeast gene YKL164C
  The level of expressed mRNA in the presence of chemical substance/The level of expressed mRNA in the absence of chemical substance: 1.4
Yeast gene YKL210W
  The level of expressed mRNA in the presence of chemical substance/The level of expressed mRNA in the absence of chemical substance: 1.4
Yeast gene YKR053C
  The level of expressed mRNA in the presence of chemical substance/The level of expressed mRNA in the absence of chemical substance: 1.1
Yeast gene YLL024C
  The level of expressed mRNA in the presence of chemical substance/The level of expressed mRNA in the absence of chemical substance: 1.0
Yeast gene YLL026W
  The level of expressed mRNA in the presence of chemical substance/The level of expressed mRNA in the absence of chemical substance: 1.9
Yeast gene YLL039C
  The level of expressed mRNA in the presence of chemical substance/The level of expressed mRNA in the absence of chemical substance: 1.5
Yeast gene YLL060C
  The level of expressed mRNA in the presence of chemical substance/The level of expressed mRNA in the absence of chemical substance: 1.4
Yeast gene YLR006C
  The level of expressed mRNA in the presence of chemical substance/The level of expressed mRNA in the absence of chemical substance: 0.9
Yeast gene YLR109W
  The level of expressed mRNA in the presence of chemical substance/The level of expressed mRNA in the absence of chemical substance: 2.1
Yeast gene YLR259C
  The level of expressed mRNA in the presence of chemical substance/The level of expressed mRNA in the absence of chemical substance: 0.9
Yeast gene YML007W
  The level of expressed mRNA in the presence of chemical substance/The level of expressed mRNA in the absence of chemical substance: 0.5
Yeast gene YML070W
  The level of expressed mRNA in the presence of chemical substance/The level of expressed mRNA in the absence of chemical substance: 2.2
Yeast gene YMR021C
  The level of expressed mRNA in the presence of chemical substance/The level of expressed mRNA in the absence of chemical substance: 2.2
Yeast gene YMR173W
  The level of expressed mRNA in the presence of chemical substance/The level of expressed mRNA in the absence of chemical substance: 5.0
Yeast gene YMR186W
  The level of expressed mRNA in the presence of chemical substance/The level of expressed mRNA in the absence of chemical substance: 1.3
Yeast gene YNL064C
  The level of expressed mRNA in the presence of chemical substance/The level of expressed mRNA in the absence of chemical substance: 0.8
Yeast gene YNL160W
  The level of expressed mRNA in the presence of chemical substance/The level of expressed mRNA in the absence of chemical substance: 5.8
Yeast gene YNL241C
  The level of expressed mRNA in the presence of chemical substance/The level of expressed mRNA in the absence of chemical substance: 0.9
Yeast gene YNR076W
  The level of expressed mRNA in the presence of chemical substance/The level of expressed mRNA in the absence of chemical substance: 1.2
Yeast gene YOL064C
  The level of expressed mRNA in the presence of chemical substance/The level of expressed mRNA in the absence of chemical substance: 1.4
Yeast gene YOL161C
  The level of expressed mRNA in the presence of chemical substance/The level of expressed mRNA in the absence of chemical substance: 1.0
Yeast gene YOR008C
  The level of expressed mRNA in the presence of chemical substance/The level of expressed mRNA in the absence of chemical substance: 1.1
Yeast gene YOR009W
  The level of expressed mRNA in the presence of chemical substance/The level of expressed mRNA in the absence of chemical substance: 0.9
Yeast gene YOR010C
  The level of expressed mRNA in the presence of chemical substance/The level of expressed mRNA in the absence of chemical substance: 0.5
Yeast gene YOR027W
  The level of expressed mRNA in the presence of chemical substance/The level of expressed mRNA in the absence of chemical substance: 1.6
Yeast gene YOR208W
  The level of expressed mRNA in the presence of chemical substance/The level of expressed mRNA in the absence of chemical substance: 1.8
Yeast gene YPL059W
  The level of expressed mRNA in the presence of chemical substance/The level of expressed mRNA in the absence of chemical substance: 1.3
Yeast gene YPL106C
  The level of expressed mRNA in the presence of chemical substance/The level of expressed mRNA in the absence of chemical substance: 1.6
Yeast gene YPL140C
  The level of expressed mRNA in the presence of chemical substance/The level of expressed mRNA in the absence of chemical substance: 0.3
Yeast gene YPL194W
  The level of expressed mRNA in the presence of chemical substance/The level of expressed mRNA in the absence of chemical substance: 1.1
Yeast gene YPL223C
  The level of expressed mRNA in the presence of chemical substance/The level of expressed mRNA in the absence of chemical substance: 1.5
Yeast gene YPL240C
  The level of expressed mRNA in the presence of chemical substance/The level of expressed mRNA in the absence of chemical substance: 1.2
Yeast gene YPR005C
  The level of expressed mRNA in the presence of chemical substance/The level of expressed mRNA in the absence of chemical substance: 0.8
